The values that follow come from patent US20140296176A1, “COMBINATION CANCER THERAPY WITH AN HSP90 INHIBITOR AND AN ANTIMETABOLITE” (Synta Pharmaceuticals Corp., priority 2011, published 2014).

SMILES strings stand for the structures.

For assay [1], the system named is HCT-116 colorectal cancer cells. As to the kind of experiment: alamarBlue cell viability assay, HCT-116 cells. The note with it: Homo sapiens, 72 hr drug exposure. The class given is cell-based. The method, then:
Human HCT-116 colorectal cancer cells (CRC) were purchased from the American Type Culture Collection (Manassas, Va.) and grown in McCoy's 5a media (Sigma), following ATCC recommendations, in the presence of fetal bovine serum (10%), 2 mM L-glutamine and antibiotics (100 IU/ml penicillin and 100 μg/ml streptomycin, Sigma). Cells were maintained at 37° C., 5% CO2 atmosphere.
Cell viability was measured using the alamarBlue assay (Invitrogen). In brief, cells were plated in 96-well plates in triplicate at 5K cells per well and incubated at 37° C., 5% CO2 atmosphere for 24 hr prior to the addition of drug or vehicle (0.3% DMSO) to the culture medium. […] Fluorescence (560EX/590EM nM) was measured with a SpectraMax microplate reader (Molecular Devices) and the resulting data were used to calculate cell viability, normalized to vehicle control.
After HCT-116 cells were exposed to drug for 72 hr, cell viability was measured and results were fit to a four parameter logistic model (XLFit, ID Business Solutions).
Combinations between ganetespib and fluorouracil were then performed in HCT-116 cells concurrently based on the IC50 for each agent in matrix format with 54 combination pairs for each drug. The combined drugs, as well as each drug alone, were incubated with the cells for 3 days and the surviving fraction of cells relative to control was determined using the alamarBlue assay.
A general note: The colour change of resazurin is a common sign of viable cells or microbes.

In the next assay the test system is MOLT-4 cells. As to the kind of experiment: alamarBlue cell viability assay, MOLT-4 cells. The class given is cell-based. As to conditions: Homo sapiens, 72 hr drug exposure, four parameter logistic fit. The method, then: Human MOLT-3, MOLT-4 and Jurkat T cell leukemia cells were purchased from the American Type Culture Collection (Manassas, Va.) and grown in RPMI (Sigma), following ATCC recommendations, in the presence of fetal bovine serum (10%), 2 mM L-glutamine and antibiotics (100 IU/ml penicillin and 100 μg/ml streptomycin, Sigma). Cells were maintained at 37° C., 5% CO2 atmosphere.
Cell viability was measured using the alamarBlue assay (Invitrogen). In brief, cells were plated in 96-well plates in triplicate at 20K, 15K or 15K cells per well for MOLT-3, MOLT-4 or Jurkat cells respectively, and incubated at 37° C., 5% CO2 atmosphere for 24 hr prior to the addition of drug or vehicle (0.3% DMSO) to the culture medium. After 72 hr, 10 μl/well Alamar Blue was added to the wells and incubated for an additional 3 hr at 37° C., 5% CO2 atmosphere. Fluorescence (560EX/590EM nM) was measured with a SpectraMax microplate reader (Molecular Devices) and the resulting data were used to calculate cell viability, normalized to vehicle control.
After MOLT-4 cells were exposed to drug for 72 hr, cell viability was measured and results were fit to a four parameter logistic model (XLFit, ID Business Solutions) shown in FIG. 1.
Combinations between ganetespib and the nucleoside analog Ara-G were then performed in MOLT-4 cells concurrently based on the IC50 for each agent. The combined drugs, as well as each drug alone, were incubated with the cells for 3 days and the surviving fraction of cells relative to control was determined using the alamarBlue assay.

Assay [2] concerns KRAS substrates, including BRAF and CRAF. As to the kind of experiment: destabilization of KRAS substrates in KRAS mutant NSCLC cells. The class given is cell-based, human. As to conditions: leading to inactivation of downstream effectors and programmed cell death.
The subject of assay [3] is KRAS mutant NSCLC cell lines. As to the kind of experiment: cell viability in panel of KRAS mutant NSCLC cell lines. As to conditions: Homo sapiens; across 15 KRAS mutant NSCLC cell lines in vitro. The class given is cell-based.
Protocol: For combinatorial analysis, cells were seeded in 96-well plates at a predetermined, optimum growth density for 24 h prior to the addition of drug or vehicle to the culture medium. Drug combinations were applied at a non-constant ratio over a range of concentrations for 72 or 96 hours. […] Cell viability was assessed by either AlamarBlue® (Invitrogen, Carlsbad, Calif.) or CellTiter-Glo® assays and normalized to vehicle controls. For each combination study, the level of growth inhibition (fraction affected) is plotted relative to vehicle control. Data are presented as one relevant combination point and the corresponding single agent data for each cell line tested.
The test system of assay [4] is human KRAS mutant NSCLC tumor xenografts. As to the kind of experiment: KRAS mutant NSCLC tumor xenografts in vivo. More on the design: species or system mouse.
For assay [5], the system named is NSCLC having a KRAS mutation. As to the kind of experiment: Phase 2 trial with ganetespib. The class given is in vivo, human. The note with it: at 8 weeks.

In general, IC50 refers to the concentration that gives 50% inhibition. Take `O=c1[nH]cc(F)c(=O)[nH]1` [5-FU, 5-fluorouracil, reference compound]: in assay [1], the IC50 was roughly 4500 nM.
On to `Nc1ccn([C@@H]2O[C@H](CO)[C@@H](O)[C@@H]2O)c(=O)n1` [Ara-C, cytarabine], for which the IC50 with MOLT-4 cells was roughly 25 nM.
With `COc1nc(N)nc2c1ncn2[C@@H]1O[C@H](CO)[C@@H](O)[C@@H]1O` [Ara-G, nelarabine], the IC50 in the assay with MOLT-4 cells was roughly 2000 nM.
Turning to `CC(C)c1cc(-c2nnc(O)n2-c2ccc3c(ccn3C)c2)c(O)cc1O` [ganetespib, 3-(2,4-dihydroxy-5-isopropyl-phenyl)-4-(1-methyl-indol-5-yl)-5-hydroxy-[1,2,4]triazole], the “destabilization of KRAS substrates” value in assay [2] is “induced the destabilization”. Besides, the IC50 in assay [3] was 24 nM; with MOLT-4 cells, roughly 20 nM; in assay [1] it was roughly 32 nM. The “growth of tumor xenografts” value in assay [4] is “effectively suppressed the growth”. For the same molecule, the “patients exhibiting tumor shrinkage” value in assay [5] was greater than 60%.
